What all share (assay type): functional, cell membranes, Membrane vesicle
In data set [1] the target is T1, Bile salt export pump (Rattus norvegicus, UniProt O70127).
T1 sequence (O70127 whole entry): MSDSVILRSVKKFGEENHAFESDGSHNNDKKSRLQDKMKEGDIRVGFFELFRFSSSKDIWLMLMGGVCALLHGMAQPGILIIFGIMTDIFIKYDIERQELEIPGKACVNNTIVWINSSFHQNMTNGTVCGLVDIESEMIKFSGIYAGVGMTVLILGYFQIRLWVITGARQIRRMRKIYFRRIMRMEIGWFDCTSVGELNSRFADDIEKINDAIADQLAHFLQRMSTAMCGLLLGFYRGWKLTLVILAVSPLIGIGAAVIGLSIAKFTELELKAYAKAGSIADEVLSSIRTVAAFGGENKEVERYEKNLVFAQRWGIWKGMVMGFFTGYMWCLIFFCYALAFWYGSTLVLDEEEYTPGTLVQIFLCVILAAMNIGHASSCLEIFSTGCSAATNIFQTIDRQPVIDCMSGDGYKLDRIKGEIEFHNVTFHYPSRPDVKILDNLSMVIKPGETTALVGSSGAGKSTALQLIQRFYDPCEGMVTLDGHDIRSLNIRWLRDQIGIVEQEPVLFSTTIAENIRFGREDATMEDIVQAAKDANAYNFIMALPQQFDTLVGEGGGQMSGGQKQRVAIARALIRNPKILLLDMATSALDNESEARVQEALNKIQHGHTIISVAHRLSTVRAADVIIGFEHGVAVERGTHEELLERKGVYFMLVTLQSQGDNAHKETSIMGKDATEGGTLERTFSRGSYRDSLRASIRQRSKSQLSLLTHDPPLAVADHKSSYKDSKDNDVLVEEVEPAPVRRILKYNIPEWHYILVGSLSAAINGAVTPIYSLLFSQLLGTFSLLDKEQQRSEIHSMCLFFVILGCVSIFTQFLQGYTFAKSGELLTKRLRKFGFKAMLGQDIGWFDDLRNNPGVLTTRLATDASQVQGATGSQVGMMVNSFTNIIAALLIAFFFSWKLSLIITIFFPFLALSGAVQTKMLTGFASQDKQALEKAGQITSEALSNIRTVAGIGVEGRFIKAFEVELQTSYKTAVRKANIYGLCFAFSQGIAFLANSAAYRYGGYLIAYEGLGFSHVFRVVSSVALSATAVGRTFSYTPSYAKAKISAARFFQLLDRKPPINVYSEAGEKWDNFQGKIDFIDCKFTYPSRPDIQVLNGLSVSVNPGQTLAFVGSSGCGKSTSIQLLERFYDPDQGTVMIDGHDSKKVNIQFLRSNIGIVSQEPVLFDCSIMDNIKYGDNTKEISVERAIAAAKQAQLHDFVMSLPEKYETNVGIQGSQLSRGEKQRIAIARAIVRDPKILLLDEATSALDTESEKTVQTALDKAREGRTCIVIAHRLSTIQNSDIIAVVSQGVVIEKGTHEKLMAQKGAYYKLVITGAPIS
Briefly: TP_TRANSPORTER: inhibition of Taurocholate uptake (Taurochorate: 1 uM, E217betaG: 50 uM) in membrane vesicles from Bsep-expressing Sf9 cells. The following applies: sf9, 50 µM.

For data set [2], the target named is T1, Bile salt export pump. Briefly: TP_TRANSPORTER: inhibition of Taurocholate uptake (Taurochorate: 1uM, Ethinyl estradiol: 25 uM) in membrane vesicles from Bsep-expressing Sf9 cells. The following applies: sf9, 25 µM.
Data set [3] deals with T1, Bile salt export pump. As to the kind of experiment: TP_TRANSPORTER: inhibition of Taurocholate uptake (Taurochorate: 100 uM, TLC: 10 uM) in membrane vesicles from Bsep-expressing Sf9 cells. The following applies: sf9, 10 µM.

For three compounds, Activity results are on record in ChEMBL document CHEMBL2073810, “Mrp2 is essential for estradiol-17beta(beta-D-glucuronide)-induced cholestasis in rats” (Hepatology, 2000).

Each structure is given as a SMILES string.

With `C[C@]12CC[C@@H]3c4ccc(O)cc4CC[C@H]3[C@@H]1CC[C@@H]2O[C@@H]1O[C@H](C(=O)O)[C@@H](O)[C@H](O)[C@H]1O` [ESTRADIOL 17B GLUCURONIDE], the Activity entry at Bile salt export pump [1] is “is not an inhibitor [-]”. With `C#C[C@]1(O)CC[C@H]2[C@@H]3CCc4cc(O)ccc4[C@H]3CC[C@@]21C` [ETHINYL ESTRADIOL], at Bile salt export pump [2], the Activity entry was “is not an inhibitor [-]”.

In the case of `C[C@H](CCC(=O)NCCS(=O)(=O)O)[C@H]1CC[C@H]2[C@@H]3CC[C@@H]4C[C@H](O)CC[C@]4(C)[C@H]3CC[C@]12C` [TAUROLITHOCHOLIC ACID], the Activity entry on Bile salt export pump [3] is “inhibitor [+]”.
